Structures can show the parent of a compound that is named as a salt. Where two headings read alike, the source gives them in different places.
Experiments:
Type in all cases: cell-based
S. aureus RN4220 = experiment: Isolation of biphenomycin-resistant strain from S. aureus RN4220: resistance rate on biphenomycin B agar; conditions: S. aureus RN4220 on agar plate containing 2 μg/ml biphenomycin B (10×MIC), 37° C. overnight
Protocol: Isolation of the Biphenomycin-Resistant S. aureus Strains RN4220Bi^R and T17
The S. aureus strain RN4220Bi^R is isolated in vitro. For this purpose, 100 μl portions of an S. aureus RN4220 cell suspension (about 1.2×10^8 cfu/ml) are plated out on an antibiotics-free agar plate (18.5 mM Na2HPO4, 5.7 mM KH2PO4, 9.3 mM NH4Cl, 2.8 mM MgSO4, 17.1 mM NaCl, 0.033 μg/ml thiamine hydrochloride, 1.2 μg/ml nicotinic acid, 0.003 μg/ml biotin, 1% glucose, 25 μg/ml of each proteinogenic amino acid with the addition of 0.4% BH broth and 1% agarose) and on an agar plate containing 2 μg/ml biphenomycin B (10×MIC), and incubated at 37° C. overnight. Whereas about 1×10^7 cells grow on the antibiotics-free plate, about 100 colonies grow on the antibiotics-containing plate, corresponding to a resistance rate of 1×10^−5. Some of the colonies grown on the antibiotics-containing plate are tested for the biphenomycin B MIC. One colony with an MIC of >50 μM is selected for further use, and the strain is referred to as RN4220Bi^R.

E. faecium L4001 = experiment: Determination of the minimum inhibitory concentration (MIC), E. faecium L4001; conditions: Enterococcus faecium, L4001, read-out: MIC E. faecium L4001
Protocol: (§1) Determination of the Minimum Inhibitory Concentration (MIC)
(§2) The minimum inhibitory concentration (MIC) is the minimum concentration of an antibiotic with which the growth of a test microbe is inhibited over 18-24 h. The inhibitor concentration can in these cases be determined by standard microbiological methods (see, for example, The National Committee for Clinical Laboratory Standards. Methods for dilution antimicrobial susceptibility tests for bacteria that grow aerobically; approved standard-fifth edition. NCCLS document M7-A5 [ISBN 1-56238-394-9]. NCCLS, 940 West Valley Road, Suite 1400, Wayne, Pa. 19087-1898 USA, 2000). The MIC of the compounds of the invention is determined in the liquid dilution test on the 96-well microtitre plate scale. The bacterial microbes are cultivated in a minimal medium (18.5 mM Na2HPO4, 5.7 mM KH2PO4, 9.3 mM NH4Cl, 2.8 mM MgSO4, 17.1 mM NaCl, 0.033 μg/ml thiamine hydrochloride, 1.2 μg/ml nicotinic acid, 0.003 μg/ml biotin, 1% glucose, 25 μg/ml of each proteinogenic amino acid with the exception of phenylalanine; [H.-P. Kroll; unpublished]) with the addition of 0.4% BH broth (test medium). In the case of Enterococcus facium L4001, heat-inactivated fetal calf serum (FCS; GibcoBRL, Germany) is added to the test medium in a final concentration of 10%. Overnight cultures of the test microbes are diluted to an OD578 of 0.001 (to 0.01 in the case of enterococci) in fresh test medium, and incubated 1:1 with dilutions of the test substances (1:2 dilution steps) in test medium (200 μl final volume). The cultures are incubated at 37° C. for 18-24 hours; enterococci in the presence of 5% CO2.
(§3) The lowest substance concentration in each case at which no visible bacterial growth occurred any more is defined as the MIC.
(§4) Alternative Method for Determining the Minimum Inhibitory Concentration (MIC)
(§5) The minimum inhibitory concentration (MIC) is the minimum concentration of an antibiotic with which the growth of a test microbe is inhibited over 18-24 h. The inhibitor concentration can in these cases be determined by standard microbiological methods with modified medium in an agar dilution test (see, for example, The National Committee for Clinical Laboratory Standards. Methods for dilution antimicrobial susceptibility tests for bacteria that grow aerobically; approved standard-fifth edition. NCCLS document M7-A5 [ISBN 1-56238-394-9]. NCCLS, 940 West Valley Road, Suite 1400, Wayne, Pa. 19087-1898 USA, 2000). The bacterial microbes are cultivated on 1.5% agar plates which contain 20% defibrinated horse blood. The test microbes, which are incubated overnight on Columbia blood agar plates (Becton-Dickinson), are diluted in PBS, adjusted to a microbe count of about […] and placed dropwise (1-3 μl) on test plates. The test substances comprise different dilutions of the test substances (1:2 dilution steps). The cultures are incubated at 37° C. in the presence of 5% CO2 for 18-24 hours.
(§6) The lowest substance concentration in each case at which no visible bacterial growth occurred any more is defined as the MIC and is reported in μg/ml.

S. aureus T17 = experiment: Determination of the minimum inhibitory concentration (MIC), biphenomycin-resistant S. aureus T17; conditions: Staphylococcus aureus
Protocol: as §1, §2, §3, §4, §5, §6
The S. aureus strain T17 is isolated in vivo. CFW1 mice are infected intraperitoneally with 4×10^7 S. aureus 133 cells per mouse. 0.5 h after the infection, the animals are treated intravenously with 50 mg/kg biphenomycin B. The kidneys are removed from the surviving animals on day 3 after the infection. After homogenization of the organs, the homogenates are plated out as described for RN4220Bi^R on antibiotics-free and antibiotics-containing agar plates and incubated at 37° C. overnight. […] About 20 of these colonies are tested for the biphenomycin B MIC, and a colony with an MIC of >50 μM is selected for further cultivation, and the strain is referred to as T17.

## NC[C@H](O)C[C@@H]1NC(=O)[C@@H](N)Cc2cc(ccc2O)-c2ccc(O)c(c2)C[C@@H](C(=O)O)NC1=O [Example 20A, 14(S)-Amino-11(S)-(3-amino-2(R)-hydroxypropyl)-5,17-dihydroxy-10,13-dioxo-9,12-diazatricyclo[14.3.1.1^2,6]henicosa-1(19),2,4,6(21),16(20),17-hexaene-8(S)-carboxylic acid dihydrochloride, reference compound]
S. aureus RN4220
  resistance rate: 1×10^−5
E. faecium L4001
  MIC: 0.5 µg/mL
S. aureus T17; biphenomycin-resistant strain, no visible bacterial growth, 18-24 h, 37° C., read-out: MIC S. aureus T17
  MIC: > 32 µg/mL
S. aureus T17; colony isolated from kidney of mice treated with 50 mg/kg biphenomycin B, read-out: MIC, selected colony (strain T17)
  MIC: > 50 µM

From patent US7446102B2, “Antibacterial amide macrocycles IV” (priority 2004, dated 2008)
